One assay has as its target CDK1/cyclin B. The assay can be described thus: Protein kinase assay, CDK1/cyclin B. Type of assay: biochemical. The note with it: 15 µM ATP, 30 °C, triplicates. Here is the method: (§1) Evaluation of the protein kinase inhibitory activity was performed in vitro as previously described. Briefly, homogenization buffer: 60 mM β-glycerophosphate, 15 mM p-nitrophenylphosphate, 25 mM Mops (pH 7.2), 15 mM EGTA, 15 mM MgCl2, 1 mM dithiothreitol, 1 mM sodium vanadate, 1 mM NaF, 1 mM phenylphosphate, 10 µg leupeptin mL^−1, 10 µg aprotinin mL^−1, 10 µg soybean trypsin inhibitor mL^−1, and 100 µg benzamidine. Buffer A: 10 mM MgCl2, 1 mM EGTA, 1 mM dithiothreitol, 25 mM Tris-HCl pH 7.5, 50 µg heparin mL^−1. Buffer C: homogenization buffer but 5 mM EGTA, no NaF and no protease inhibitors. Kinase activities were assayed in triplicates in buffer A or C at 30 °C, at a final ATP concentration of 15 µM. The order of mixing the reagents was: buffers, substrate, enzyme, inhibitor and ^33P-radiolabelled ATP. Isolated compounds were tested against a panel of eight kinases; namely cyclin-dependent kinase 1 (CDK1/cyclin B), cyclin-dependent kinase 2 (CDK2/cyclin A), cyclin-dependent kinase 5 (CDK5/p25), cyclin-dependent kinase 9 (CDK9/cyclin T), casein kinase 1 (CK1), Cdc2-like kinase 1 (CLK1), dual-specificity tyrosine-(Y)-phosphorylation regulated kinase 1A (DYRK1A) and glycogen synthase kinase-3α/β (GSK-3α/β).

Another assay has as its target CDK5/p25 (Homo sapiens, UniProt Q00535). Nature of the assay: Protein kinase assay, CDK5/p25. Type of assay: biochemical. To be noted: 15 µM ATP, 30 °C, triplicates. The method, then: as §1
Assay [1] addresses glycogen synthase kinase-3α/β (GSK-3α/β). Nature of the assay: Protein kinase assay, GSK-3α/β. Type of assay: biochemical. To be noted: 15 µM ATP, 30 °C, triplicates, read-out: GSK3 IC50. Here is the method: as §1
The target in another assay is CDK9/cyclin T (Homo sapiens, UniProt P50750). The assay can be described thus: Protein kinase assay, CDK9/cyclin T. Type of assay: biochemical. To be noted: 15 µM ATP, 30 °C, triplicates. Here is the method:
as §1

In another assay the target is casein kinase 1 (CK1). The assay can be described thus: Protein kinase assay, casein kinase 1. Type of assay: biochemical. The note with it: 15 µM ATP, 30 °C, triplicates. The method, then: as §1
The next assay deals with CDK2/cyclin A (Homo sapiens, UniProt P24941). The assay can be described thus: Protein kinase assay, CDK2/cyclin A. It is filed as biochemical. The note with it: 15 µM ATP, 30 °C, triplicates. Here is the method:
as §1

The subject of another assay is topoisomerase II. The arrangement: method as in PMID 7473578. To be noted: catalytic DNA unwinding and decatenation assays, KSDS assay; cited from earlier work.
The target in assay [2] is yeast farnesyltransferase. Also noted: method as in PMID 20634081. To be noted: read-out: IC50 against yeast farnesyltransferase; cited from earlier work.
Assay [3] addresses human farnesyltransferase. The arrangement: method as in PMID 20634081. The note with it: read-out: IC50 against human farnesyltransferase; cited from earlier work.
The subject of assay [4] is Staphylococcus aureus ATCC 6538. Nature of the assay: Antibacterial assay, growth inhibition in liquid culture. The note with it: ATCC6538, S. aureus ATCC 6538, OD 620 nm after 16 to 18 h, read-out: antibacterial activity IC50 against Staphylococcus aureus. Type of assay: cell-based. Here is the method:
The antibacterial activity assay was conducted on the bacterial strain Gram-positive Staphylococcus aureus ATCC 6538 and Gram-negative Escherichia coli ATCC 8739 evaluated in vitro by determining the IC50. A pre-culture of 5 mL LB (Luria Bertoni) medium was prepared by inoculating a colony of the bacterial strain and was incubated at 37 °C with stirring overnight. The concentration of the pre-culture was assessed by measuring the optical density OD at 620 nm and adjusted by dilution to obtain a suspension of 0.03 OD. The […] was determined by a liquid test in 96-well-plates. A quantity of 200 µL of the bacterial suspension was distributed in each well and 10 µL of the extracts, fractions or pure compounds solutions in DMSO (10, 5 and 2 mg/mL, respectively) were added in triplicate. The 96 well-plates were incubated at 30 °C for 16 to 18 h with shaking (450 rpm). The optical density of the wells was measured at 620 nm and the results were interpreted by calculating the percentage of growth inhibition in each well using the formula: % inhibition = 100 − (DOS − DOB)/(DOT − DOB) ×100 where T = bacterial suspension without test sample, B = culture medium without bacteria and S = bacterial suspension test sample. Ampicillin and chloramphenicol were used as positive control against S. aureus and E. coli, respectively.

A further assay deals with DYRK1A (Rattus norvegicus, UniProt Q63470). Nature of the assay: Protein kinase assay, DYRK1A. Type of assay: biochemical. The method, then: as §1

Structures can show the parent of a compound that is named as a salt.

Sequence of CDK9/cyclin T (P50750 whole entry, species assumed): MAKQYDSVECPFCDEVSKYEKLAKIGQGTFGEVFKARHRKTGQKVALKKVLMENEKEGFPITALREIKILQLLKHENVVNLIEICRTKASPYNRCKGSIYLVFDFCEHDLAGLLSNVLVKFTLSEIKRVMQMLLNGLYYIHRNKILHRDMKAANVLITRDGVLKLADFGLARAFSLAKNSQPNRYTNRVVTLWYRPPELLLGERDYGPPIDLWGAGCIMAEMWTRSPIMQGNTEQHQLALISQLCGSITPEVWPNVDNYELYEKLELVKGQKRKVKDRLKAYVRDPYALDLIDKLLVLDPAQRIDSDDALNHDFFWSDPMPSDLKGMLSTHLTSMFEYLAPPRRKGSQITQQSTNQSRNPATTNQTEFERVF
Sequence of CDK9/cyclin T (O60563 whole entry partner, species assumed): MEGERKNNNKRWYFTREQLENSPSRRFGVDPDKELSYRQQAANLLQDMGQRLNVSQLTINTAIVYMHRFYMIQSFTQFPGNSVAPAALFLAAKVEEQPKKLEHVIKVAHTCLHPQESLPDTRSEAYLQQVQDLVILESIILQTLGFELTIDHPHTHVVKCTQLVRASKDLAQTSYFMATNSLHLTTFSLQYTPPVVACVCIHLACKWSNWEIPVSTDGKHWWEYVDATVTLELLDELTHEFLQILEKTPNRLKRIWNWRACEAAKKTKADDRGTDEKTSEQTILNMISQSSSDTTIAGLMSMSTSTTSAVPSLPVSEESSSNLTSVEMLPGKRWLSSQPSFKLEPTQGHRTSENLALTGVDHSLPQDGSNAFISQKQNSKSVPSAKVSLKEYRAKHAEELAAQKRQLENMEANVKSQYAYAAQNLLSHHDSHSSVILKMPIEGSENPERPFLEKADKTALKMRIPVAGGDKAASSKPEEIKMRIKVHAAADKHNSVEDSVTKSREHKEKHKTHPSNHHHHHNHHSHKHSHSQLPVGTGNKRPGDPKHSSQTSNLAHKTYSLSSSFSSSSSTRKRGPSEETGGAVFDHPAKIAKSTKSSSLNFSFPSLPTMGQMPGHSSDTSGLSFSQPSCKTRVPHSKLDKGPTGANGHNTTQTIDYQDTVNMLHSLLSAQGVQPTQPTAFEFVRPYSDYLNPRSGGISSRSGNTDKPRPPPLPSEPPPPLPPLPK
Sequence of CDK5/p25 (Q00535 whole entry, species assumed): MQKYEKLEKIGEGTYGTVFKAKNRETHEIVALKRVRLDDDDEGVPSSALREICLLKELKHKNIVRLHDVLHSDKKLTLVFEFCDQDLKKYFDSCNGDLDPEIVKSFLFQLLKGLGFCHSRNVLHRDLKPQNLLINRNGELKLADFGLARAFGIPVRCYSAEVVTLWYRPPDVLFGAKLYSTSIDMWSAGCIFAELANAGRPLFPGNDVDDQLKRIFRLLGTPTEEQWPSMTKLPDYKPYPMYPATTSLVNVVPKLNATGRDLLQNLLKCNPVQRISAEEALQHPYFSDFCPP
Sequence of CDK5/p25 (Q15078 99-307 partner limits assumed, species assumed): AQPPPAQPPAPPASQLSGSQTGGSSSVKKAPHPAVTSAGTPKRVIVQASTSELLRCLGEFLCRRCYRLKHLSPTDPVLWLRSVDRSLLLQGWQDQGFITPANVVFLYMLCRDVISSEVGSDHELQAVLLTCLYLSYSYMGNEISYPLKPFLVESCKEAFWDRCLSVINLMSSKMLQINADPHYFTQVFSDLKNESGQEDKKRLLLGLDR

On to `C[C@@]12CCC(=O)c3coc(c31)C(=O)c1cc3c(O)ccc(OS(=O)(=O)O)c3cc12` [Compound 12], for which the 50% inhibitory concentration (IC50) against CDK1/cyclin B was 4.3 µM; against CDK5/p25 it was 2.2 µM; in assay [1], 0.61 µM; against CDK9/cyclin T, 0.5 µM; on casein kinase 1 (CK1), 5.2 µM; against CDK2/cyclin A it was 7.5 µM.

In the case of `C[C@@]12CCCc3coc(c31)C(=O)c1cc3c(cc12)C(=O)C1=C(NCCS1(=O)=O)C3=O` [Compound 6, adociaquinone B], the half-inhibitory concentration (IC50) at CDK1/cyclin B is above 10 µM; against CDK5/p25, above 10 µM; in assay [1], above 10 µM; against CDK9/cyclin T, 3 µM; at casein kinase 1 (CK1) it was above 10 µM; against CDK2/cyclin A, above 10 µM. Also, in the assay on topoisomerase II, the “inhibition of topoisomerase II (in words)” value was “inhibition of topoisomerase II”.

As for adociaquinone A [Compound 5], in the assay on topoisomerase II, the “inhibition of topoisomerase II (in words)” value is recorded as “inhibition of topoisomerase II”.

Consider `C[C@@]12CCCc3coc(c31)C(=O)c1cc3c(cc12)C(=O)C=C(NCCS(=O)(=O)O)C3=O` [Compound 8, secoadociaquinone B], for which the IC50 is above 10 µM on CDK1/cyclin B; 6 µM at CDK5/p25; above 10 µM in [1]; above 10 µM at CDK9/cyclin T; above 10 µM against casein kinase 1 (CK1); above 10 µM on CDK2/cyclin A.

`CC1=CCCC2(C)C1=C(O)C(=O)c1cc3c(cc12)C(=O)C=CC3=O` (stereo not drawn) [Orhalquinone]: the IC50 in assay [2] and in assay [3] was 0.4 µM throughout.

Consider `C[C@@]12CCCc3coc(c31)C(=O)c1cc3c(O)ccc(OS(=O)(=O)O)c3cc12` [Compound 11, xestoquinol sulfate], for which the IC50 in assay [4] was determined as 125 µM.

Take `CO[C@]12OC(O)C3=C1[C@@](C)(CCC3=O)c1cc3c(OS(=O)(=O)O)ccc(O)c3cc1C2=O` (stereo partly drawn) [Compound 13]: the half-maximal inhibitory concentration (IC50) (on CDK1/cyclin B; against CDK5/p25; in assay [1]; against CDK9/cyclin T; against casein kinase 1 (CK1); on CDK2/cyclin A) was above 10 µM each time. The “activity against DYRK1A (in words)” value on DYRK1A is given as “marginal activity”.
